PubChem BioAssay (NCI)
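A five-concentration, 48-hour dose response in 96-well plates underlies each endpoint, interpolated linearly between surrounding concentrations. TGI marks complete inhibition of growth.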

Experiments:
Test in all cases: NCI-60 cell line screen, 48 h
DMS 273 small cell lung = tested on: DMS 273 small cell lung
SK-MEL-2 melanoma = tested on: SK-MEL-2 melanoma
HT29 colon = tested on: HT29 colon
SK-MEL-5 melanoma = tested on: SK-MEL-5 melanoma
HOP-62 NSCLC = tested on: HOP-62 NSCLC
NCI-H226 lung = tested on: NCI-H226 lung
NCI-H460 lung = tested on: NCI-H460 lung
CAKI-1 renal = tested on: CAKI-1 renal
MOLT-4 leukemia = tested on: MOLT-4 leukemia
XF 498 CNS = tested on: XF 498 CNS
M19-MEL melanoma = tested on: M19-MEL melanoma
SF-295 CNS = tested on: SF-295 CNS
CCRF-CEM leukemia = tested on: CCRF-CEM leukemia
UACC-257 melanoma = tested on: UACC-257 melanoma
UACC-62 melanoma = tested on: UACC-62 melanoma
LXFL 529 NSCLC = tested on: LXFL 529 NSCLC
M14 melanoma = tested on: M14 melanoma
U251 CNS = tested on: U251 CNS
A549 NSCLC = tested on: A549 NSCLC
K-562 leukemia = tested on: K-562 leukemia
EKVX NSCLC = tested on: EKVX NSCLC
NCI-H522 lung = tested on: NCI-H522 lung
SK-OV-3 ovarian = tested on: SK-OV-3 ovarian
KM12 colon = tested on: KM12 colon
SR leukemia = tested on: SR leukemia
DLD-1 colon = tested on: DLD-1 colon
HL-60(TB) leukemia = tested on: HL-60(TB) leukemia
RXF-631 renal = tested on: RXF-631 renal
UO-31 renal = tested on: UO-31 renal
HCT-116 colon = tested on: HCT-116 colon
HCC-2998 colon = tested on: HCC-2998 colon
LOX IMVI melanoma = tested on: LOX IMVI melanoma
SF-539 CNS = tested on: SF-539 CNS
SN12C renal = tested on: SN12C renal
RPMI-8226 leukemia = tested on: RPMI-8226 leukemia
SNB-19 CNS = tested on: SNB-19 CNS
HCT-15 colon = tested on: HCT-15 colon
RXF 393 renal = tested on: RXF 393 renal
ACHN renal = tested on: ACHN renal
OVCAR-5 ovarian = tested on: OVCAR-5 ovarian
KM20L2 colon = tested on: KM20L2 colon
786-0 renal = tested on: 786-0 renal
HOP-92 NSCLC = tested on: HOP-92 NSCLC
OVCAR-8 ovarian = tested on: OVCAR-8 ovarian
SNB-75 CNS = tested on: SNB-75 CNS
IGROV1 ovarian = tested on: IGROV1 ovarian
OVCAR-4 ovarian = tested on: OVCAR-4 ovarian
A498 renal = tested on: A498 renal
SW-620 colon = tested on: SW-620 colon
SNB-78 CNS = tested on: SNB-78 CNS
NCI-H23 lung = tested on: NCI-H23 lung
COLO 205 colon = tested on: COLO 205 colon
TK-10 renal = tested on: TK-10 renal
SF-268 CNS = tested on: SF-268 CNS
SK-MEL-28 melanoma = tested on: SK-MEL-28 melanoma
HOP-18 NSCLC = tested on: HOP-18 NSCLC
MALME-3M melanoma = tested on: MALME-3M melanoma
DMS 114 small cell lung = tested on: DMS 114 small cell lung

Measured: TGI

COC(=O)/C(=C/c1ccc(OC)cc1)C(C(=O)O)=C1CCCC1
not listed: SF-268 CNS | SK-MEL-28 melanoma | HOP-18 NSCLC | MALME-3M melanoma | DMS 114 small cell lung
> 100 µM: all other assays above

O=C(O)C(Cl)(Cl)Cl
not listed: HT29 colon | HOP-62 NSCLC | UACC-62 melanoma | NCI-H522 lung | RXF-631 renal | 786-0 renal | A498 renal
> 100 µM: all other assays above
